Molecules are shown by their SMILES.

As a reminder, the fraction remaining is what is left of the initial amount, in per cent. What is called ED50 is the dose that gives a 50% effect, or the effect in half of the subjects.

A short description of series [1]: Metabolic stability in human liver microsomes. It counts as in vitro ADME. The settings on record: human, human liver microsomes; HLMs, 120 min; read-out: metabolic stability (% remaining after the reaction with HLMs). From the text:
Molecular mass Molecular mass of the
Substrate (m/z) metabolite (m/z) Metabolic pathway
* Reference unstable drug; metabolic stability determined using the same procedure published previously
Background: Liver microsomes are a subcellular fraction often used to study metabolism.

Series [2] relates to mice. The series can be described thus: Capsaicin-induced pain. It counts as in vivo. To be noted: Mus musculus, ip, 30 min before capsaicin. The method, then:
The experimental groups consisted of 10 adult male Albino Swiss mice (CD-1, 18–25 g). Each animal was tested only once. Immediately after the assay, the animals were sacrificed by cervical dislocation. Behavioral measurements were observed by trained observers. The in vivo antinociceptive assays were in accordance with Polish regulations and the European Union Directive of 22 Sept 2010 (2010/63/EU). All procedures were carried out according to the rules of the International Council on Laboratory Animal Science (ICLAS) and were approved by the Local Ethics Committee in Cracow, Poland (104/2015, 279/2019, and 614/2022). The tested substances were suspended in a 1% aqueous solution of Tween 80 and were injected i.p. 30 min prior to the test. […] The in vivo procedure for the model of capsaicin-induced nociception was previously reported;[67] the animals were pretreated with vehicle (10 mL/kg, negative control), and the dose–response of investigated compounds was evaluated at 12.5, 25, and 50 mg/kg.
(§1) Data are presented as means ± standard error of the mean (SEM). […] Statistically significant differences between groups were calculated using one-way analysis of variance (ANOVA) and the post hoc Dunnett’s multiple comparison test or two-way analysis of variance (ANOVA). […]

The test system of series [3] is mice. Briefly: Formalin test. It counts as in vivo. To be noted: Mus musculus, ip, 30 min before test.
Source text: One of the most useful screening methods for testing clinically relevant molecules is the formalin model. The local injection of formalin solution induces two distinct phases of the nociceptive response, which are associated with immediate activation of nociceptors (phase I) and sensitization of spinal reflex circuits (phase II).[41] It is important to note that during the second phase, there is also an inflammatory response to tissue damage. […] Thus, this model has been successfully used to assess the analgesic efficacy of a variety of compounds, including ASMs.[42]
The experimental groups consisted of 10 adult male Albino Swiss mice (CD-1, 18–25 g). Each animal was tested only once. Immediately after the assay, the animals were sacrificed by cervical dislocation. Behavioral measurements were observed by trained observers. […] The in vivo procedure for the model of capsaicin-induced nociception was previously reported;[67] the animals were pretreated with vehicle (10 mL/kg, negative control), and the dose–response of investigated compounds was evaluated at 12.5, 25, and 50 mg/kg.
as §1

For the next series, the system named is mature BDNF (mBDNF). The series can be described thus: mBDNF and proNGF expression in hippocampus and cortex of PTZ-kindled mice (western blot). It counts as in vivo. The settings on record: PTZ-kindled animals, prolonged treatment. As to the method: In addition, we determined the expression of the nerve growth factor (NGF), which can also be implicated in kindling progression, by enhancing mossy fiber sprouting.[40] However, no changes in the NGF protein expression in the hippocampus and cortex of kindled animals were found (Figure 5C,D).
The expression of mBDNF and proNGF in the mouse hippocampus and cortex was evaluated by the western blot technique. Half of mouse brain structures, cortex and hippocampus, were weighted and homogenized at the ratio of 9 μL/mg in 2% sodium dodecyl sulfate (SDS) supplemented with a cocktail of protease (Thermo Scientific) and phosphatese inhibitors (Sigma-Aldrich) using a bead homogenizer (Bead Ruptor Elite, Omni International). Then, the samples were denatured at 95 °C for 10 min and centrifuged at 10,000g for 10 min at 4 °C. The total protein concentration in the obtained supernatants was determined using a PierceTM BCA Protein Assay Kit (Thermo Scientific, Waltham, MA). After setting the proper protein concentration, the samples were mixed with loading buffer (containing 10% 2-mercaptoethanol) at a ratio of 3:1 and heated for 10 min at 95 °C. Equal amounts of the protein (45 μg/lane) were loaded on Any kD precast polyacrylamide gels (Criterion, TGX Stain-Free gel, Bio-Rad, Hercules, CA) and subjected to electrophoresis (170 V, 60 min). Separated proteins were transferred to the polyvinylidene difluoride (PVDF) membrane (Bio-Rad, Hercules, CA) and were blocked in a 5% solution of albumin in TBST. […] The proteins were detected using the electrochemiluminescence (ECL) method (Western Bright Quantum, Advansta Inc., San Jose, CA). The chemiluminescence of the membranes was imaged with the G-Box Imaging System (Syngene, Frederick, MD), and the protein expression was analyzed with Gene Tools software (Syngene, Frederick, MD) and expressed as relative to the total protein content in the membrane lane.
Changes in the relative expression of tested proteins were analyzed using one-way ANOVA with Tukey’s post hoc test.

For the compound `CC(=O)NC(C)C(=O)N1CCN(c2cccc(C(F)(F)F)c2)CC1` (stereo not drawn) [Compound 26, N-(1-oxo-1-(4-(3-(Trifluoromethyl)phenyl)piperazin-1-yl)propan-2-yl)acetamide], in series [1], the fraction remaining at 2 h came to 93.5%.

On to `CC(=O)NC(C)C(=O)N1CCN(c2cccc(OC(F)(F)F)c2)CC1` (stereo not drawn) [Compound 28, N-(1-oxo-1-(4-(3-(Trifluoromethoxy)phenyl)piperazin-1-yl)propan-2-yl)acetamide], for which the ED50 in the series on mice [2] was 27.5 mg/kg; in the series with mice [3] (read-out: ED50 formalin test phase I (acute phase)), 34.3 mg/kg; with mice [3] (read-out: ED50 formalin test phase II (late phase)), 22 mg/kg. Besides, the “mBDNF expression in the cortex” value in the series on mature BDNF (mBDNF) is given as “decreased the expression of mBDNF”. Moreover, the “mBDNF expression in the hippocampus” value with mature BDNF (mBDNF) was “not in the hippocampus”.

Source of the values: publication PMC11157491, “Novel Alaninamide Derivatives with Drug-like Potential for Development as Antiseizure and Antinociceptive Therapies—In Vitro and In Vivo Characterization” (ACS Chemical Neuroscience, 2024).
